According to US9963462B2 (priority 2015, dated 2018):

Experiments:
[1] = biological target: SNAP-hSPR (sepiapterin reductase, SPR) (Homo sapiens, UniProt P35270); assay: biochemical; format: binding; settings: terbium labelled SNAP-hSPR / SSZ labelled SNAP-EGFP; read-out: hTR-FRET IC50
[2] = tested on: BH4 production in human peripheral blood mononuclear cells (PBMCs); assay: hPBMC assay, inhibition of BH4 production by LC-MS (anti-CD3/anti-CD28 stimulated); format: cell-based; settings: PBMC, read-out: hPBMC IC50

Sequence of SNAP-hSPR (sepiapterin reductase, SPR) (P35270 whole entry): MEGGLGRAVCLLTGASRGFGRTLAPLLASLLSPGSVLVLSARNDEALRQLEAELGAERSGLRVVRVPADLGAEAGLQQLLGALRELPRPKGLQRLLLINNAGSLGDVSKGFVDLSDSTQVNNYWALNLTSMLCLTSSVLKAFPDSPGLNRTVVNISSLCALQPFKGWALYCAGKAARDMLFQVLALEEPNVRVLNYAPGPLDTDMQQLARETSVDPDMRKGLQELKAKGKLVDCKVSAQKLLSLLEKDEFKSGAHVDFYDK

SMILES	IC50 [1]	IC50 [2]
Cc1c(C(=O)N2CCN(c3ncc(-c4ccccc4C(F)(F)F)o3)CC2)cnn1-c1nn2cccc2c(=O)[nH]1 [Q-1171]	10 nM	140 nM
Cc1c(C(=O)N2CCN(c3nc(-c4ccccc4C#N)cs3)CC2)cnn1-c1nn2cccc2c(=O)[nH]1 [Q-1172]	3 nM	180 nM
Cc1c(C(=O)N2CCN(c3nc(-c4cccc(C(F)(F)F)c4)cs3)CC2)cnn1-c1nn2cccc2c(=O)[nH]1 [Q-1173]	20 nM	290 nM
Cc1c(C(=O)N2CC3CCCC(C2)C3=CC(F)(F)F)cnn1-c1nn2cccc2c(=O)[nH]1 [Q-1174]	1 nM	22 nM
Cc1c(C(=O)N2CCN(c3ncc(-c4ccc(C(F)(F)F)cc4)o3)CC2)cnn1-c1nn2cccc2c(=O)[nH]1 [Q-1175]	20 nM	450 nM
Cc1c(C(=O)N2CCN(c3ncc(-c4cccc(Cl)c4)o3)CC2)cnn1-c1nn2cccc2c(=O)[nH]1 [Q-1176]	9 nM	280 nM
Cc1c(C(=O)NC2CC(F)(F)C2)cnn1-c1nn2cccc2c(=O)[nH]1 [Q-1177]	9 nM	1300 nM
Cc1c(C(=O)N2CCN(c3nnc(-c4ccc(C(F)(F)F)cn4)o3)CC2)cnn1-c1nn2cccc2c(=O)[nH]1 [Q-1178]	9 nM	2600 nM
Cc1c(C(=O)N2CCN(c3nc(-c4ccc(Cl)nc4)cs3)CC2)cnn1-c1nn2cccc2c(=O)[nH]1 [Q-1179]	2 nM	110 nM
Cc1c(C(=O)N2CCN(c3nc(-c4ccc(F)nc4)cs3)CC2)cnn1-c1nn2cccc2c(=O)[nH]1 [Q-1180]	2 nM	47 nM
Cc1c(C(=O)N2CCN(c3nc(-c4cccc(C#N)c4)cs3)CC2)cnn1-c1nn2cccc2c(=O)[nH]1 [Q-1181]	2 nM	11 nM
Cc1c(C(=O)N2CCN(c3nc(-c4ccncc4)cs3)CC2)cnn1-c1nn2cccc2c(=O)[nH]1 [Q-1182]	1 nM	48 nM
Cc1c(C(=O)N2CCCN(CCC(F)(F)F)CC2)cnn1-c1nn2cccc2c(=O)[nH]1 [Q-1183]	4 nM	110 nM
Cc1c(C(=O)N2CCC(C3CC3)CC2)nnn1-c1nn2cccc2c(=O)[nH]1 [Q-1184]	2 nM	37 nM
Cc1c(C(=O)N2CC(N3CCC(F)(F)C3)C2)nnn1-c1nn2cccc2c(=O)[nH]1 [Q-1185]	1 nM	110 nM
Cc1c(C(=O)N2C[C@H]3CCC[C@@H](C2)[C@H]3CC(F)(F)F)cnn1-c1nn2cccc2c(=O)[nH]1 [Q-1186]	1 nM	36 nM
Cc1c(C(=O)N2CCc3nc(-c4ccncc4)sc3C2)cnn1-c1nn2cccc2c(=O)[nH]1 [Q-1187]	4 nM	190 nM
Cc1c(C(=O)N2CCN(c3nnc(-c4ccccc4Cl)o3)CC2)cnn1-c1nn2cccc2c(=O)[nH]1 [Q-1188]	6 nM	290 nM
Cc1c(C(=O)N2CCN(c3ncc(-c4ccc(Cl)nc4)o3)CC2)nnn1-c1nn2cccc2c(=O)[nH]1 [Q-1190]	10 nM	59 nM
Cc1c(C(=O)N2CCN(C3CCC3)CC2)nnn1-c1nn2cccc2c(=O)[nH]1 [Q-1191]	1 nM	20 nM
Cc1c(C(=O)N2CCC3(CCCC3=O)CC2)cnn1-c1nn2cccc2c(=O)[nH]1 [Q-1192]	1 nM	40 nM
Cc1c(C(=O)N2CCN(c3nnc(-c4cccc(F)c4)o3)CC2)cnn1-c1nn2cccc2c(=O)[nH]1 [Q-1193]	7 nM	160 nM
Cc1c(C(=O)N2CC3CC(C2)N3CCC(F)(F)F)cnn1-c1nn2cccc2c(=O)[nH]1 [Q-1194]	2 nM	60 nM
Cc1c(C(=O)N2CCN(c3nc(-c4ccnc(F)c4)cs3)CC2)cnn1-c1nn2cccc2c(=O)[nH]1 [Q-1196]	3 nM	52 nM

SMILES	IC50 [1]	IC50 [2]
Cc1c(C(=O)N2CCN(c3ncc(-c4ccc(F)nc4)s3)CC2)cnn1-c1nn2cccc2c(=O)[nH]1 [Q-1197]	3 nM	26 nM
COCC(C1CCN(C(=O)c2cnn(-c3nn4cccc4c(=O)[nH]3)c2C)CC1)C(F)(F)F (stereo not shown) [Q-1198]	1 nM	17 nM
Cc1c(C(=O)N2C[C@H]3CCC[C@@H](C2)[C@@H]3CC(F)(F)F)cnn1-c1nn2cccc2c(=O)[nH]1 [Q-1199]	1 nM	29 nM
Cc1c(C(=O)N2CCN(CC(F)(F)F)C3(CCC3)C2)cnn1-c1nn2cccc2c(=O)[nH]1 [Q-1200]	1 nM	150 nM
Cc1c(C(=O)N2CCN(C3CC3)CC2)nnn1-c1nn2cccc2c(=O)[nH]1 [Q-1201]	1 nM	69 nM
Cc1c(C(=O)N2CCN(c3ncc(-c4ccc(F)cc4)o3)CC2)cnn1-c1nn2cccc2c(=O)[nH]1 [Q-1202]	5 nM	260 nM
Cc1c(C(=O)N2CCN(c3ncc(-c4ccccc4C#N)o3)CC2)cnn1-c1nn2cccc2c(=O)[nH]1 [Q-1203]	6 nM	180 nM
Cc1c(C(=O)N2CCCN(C3CC3)CC2)cnn1-c1nn2cccc2c(=O)[nH]1 [Q-1205]	3 nM	35 nM
Cc1c(C(=O)N2CCc3nc(-c4cccnc4)sc3C2)cnn1-c1nn2cccc2c(=O)[nH]1 [Q-1206]	1 nM	70 nM
CCCC(=O)C1CCN(C(=O)c2cnn(-c3nn4cccc4c(=O)[nH]3)c2C)CC1 [Q-1207]	1 nM	29 nM
Cc1c(C(=O)N2CCC(C(=O)C3CC3)CC2)cnn1-c1nn2cccc2c(=O)[nH]1 [Q-1208]	1 nM	61 nM
Cc1c(C(=O)N2CCC3(CCC3=O)CC2)cnn1-c1nn2cccc2c(=O)[nH]1 [Q-1209]	1 nM	920 nM
Cc1c(C(=O)N2CCN(c3nc(-c4ccc(C#N)cc4)cs3)CC2)cnn1-c1nn2cccc2c(=O)[nH]1 [Q-1210]	2 nM	84 nM
Cc1c(C(=O)N2CCN(c3ncc(-c4ccc(C#N)cc4)s3)CC2)cnn1-c1nn2cccc2c(=O)[nH]1 [Q-1211]	10 nM	160 nM
Cc1c(C(=O)N2CCN(c3ncc(-c4cccc(C#N)c4)o3)CC2)cnn1-c1nn2cccc2c(=O)[nH]1 [Q-1212]	1 nM	13 nM
Cc1c(C(=O)N2CCN(C(=O)C3CC3)CC2)cnn1-c1nn2cccc2c(=O)[nH]1 [Q-1213]	3 nM	890 nM
CCC(=O)N1CCN(C(=O)c2cnn(-c3nn4cccc4c(=O)[nH]3)c2C)CC1 [Q-1214]	6 nM	1000 nM
CC(=O)C1(c2ccccc2)CCN(C(=O)c2cnn(-c3nn4cccc4c(=O)[nH]3)c2C)CC1 [Q-1215]	1 nM	17 nM
Cc1c(C(=O)N2CCN(CC(F)(F)F)c3ccccc32)cnn1-c1nn2cccc2c(=O)[nH]1 [Q-1216]	1 nM	46 nM
Cc1c(C(=O)N2CCC2c2cccc(F)n2)cnn1-c1nn2cccc2c(=O)[nH]1 (stereo not shown) [Q-1217]	3 nM	270 nM
Cc1c(C(=O)N2CCCN(C(C)C(F)(F)F)CC2)cnn1-c1nn2cccc2c(=O)[nH]1 (stereo not shown) [Q-1218]	3 nM	130 nM
Cc1c(C(=O)N2CCC(n3cccc3C#N)CC2)cnn1-c1nn2cccc2c(=O)[nH]1 [Q-1219]	1 nM	79 nM
Cc1c(C(=O)N2CCC3(CCCCC3=O)CC2)cnn1-c1nn2cccc2c(=O)[nH]1 [Q-1220]	1 nM	22 nM
